Patent US20230085307A1, “PYRIDAZINONE COMPOUND AND HERBICIDE” (NISSAN CHEMICAL CORPORATION, priority 2019, published 2023)

System: persian speedwell
Assay: Test Example 4: herbicidal effect by soil treatment (Table 19, symbol R)
Type: in vivo, Persian speedwell (Veronica persica)
Settings: 320 g/ha
Method in brief: (§1)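 Three weeks of greenhouse growth at 25° C. to 30° C. followed a uniform surface spray of water-diluted emulsion at a predetermined herbicide amount. Seeds had been sown beforehand under about 1.5 cm of sterilized diluvial soil. Grading followed criteria set out in an earlier test.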

Structure (SMILES) | herbicidal effect rating, R: persian speedwell
C#CCOc1ccc(-c2sc3ccc(F)cc3c2-c2c(O)c(C)nn(C)c2=O)cc1 [2-053] | 5 (Herbicidal rate of 90% or more (almost completely withered))
CSc1ccc(-c2sc3ccc(F)cc3c2-c2c(O)c(C)nn(C)c2=O)cc1 [2-076] | 5 (Herbicidal rate of 90% or more (almost completely withered))
CCCC(=O)Oc1c(C)nn(C)c(=O)c1-c1c(-c2ccc(SC)cc2)sc2ccc(F)cc12 [2-077] | 5 (Herbicidal rate of 90% or more (almost completely withered))

System: chickweed
Assay: Test Example 5: herbicidal effect by foliage application, plastic box (Table 20, symbol P)
Type: in vivo, common chickweed (Stellaria media)
Settings: foliage application, 320 g/ha, evaluated three weeks after application
Method in brief: (§2)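 Plants sown in sterilized diluvial soil and grown 14 days in a greenhouse at 25° C to 30° C, then sprayed on the foliage with the compound's emulsion diluted in water to a predetermined herbicide amount. Injury to weeds and crops scored three weeks after application on a visual rating scale.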

Structure (SMILES) | herbicidal effect on P: chickweed
C#CCOc1ccc(-c2sc3ccc(F)cc3c2-c2c(O)c(C)nn(C)c2=O)cc1 [2-053] | 5 (Herbicidal rate of 90% or more (almost completely withered))
CSc1ccc(-c2sc3ccc(F)cc3c2-c2c(O)c(C)nn(C)c2=O)cc1 [2-076] | 5 (Herbicidal rate of 90% or more (almost completely withered))
CCCC(=O)Oc1c(C)nn(C)c(=O)c1-c1c(-c2ccc(SC)cc2)sc2ccc(F)cc12 [2-077] | 5 (Herbicidal rate of 90% or more (almost completely withered))

System: velvetleaf
Assay: Test Example 4: herbicidal effect by soil treatment (Table 19, symbol M)
Type: in vivo, velvetleaf (Abutilon theophrasti)
Settings: 320 g/ha
Method in brief: as §1

Structure (SMILES) | herbicidal effect rating, M: velvetleaf
C#CCOc1ccc(-c2sc3ccc(F)cc3c2-c2c(O)c(C)nn(C)c2=O)cc1 [2-053] | 3 (Herbicidal rate of 40% or more and less than 70%)
CSc1ccc(-c2sc3ccc(F)cc3c2-c2c(O)c(C)nn(C)c2=O)cc1 [2-076] | 2 (Herbicidal rate of 20% or more and less than 40%)
CCCC(=O)Oc1c(C)nn(C)c(=O)c1-c1c(-c2ccc(SC)cc2)sc2ccc(F)cc12 [2-077] | 3 (Herbicidal rate of 40% or more and less than 70%)

System: Italian ryegrass
Assay: Test Example 5: herbicidal effect by foliage application, plastic box (Table 20, symbol K)
Type: in vivo, Italian ryegrass (Lolium multiflorum)
Settings: foliage application, 320 g/ha, evaluated three weeks after application
Method in brief: as §2

Structure (SMILES) | herbicidal effect on K: Italian ryegrass
C#CCOc1ccc(-c2sc3ccc(F)cc3c2-c2c(O)c(C)nn(C)c2=O)cc1 [2-053] | 5 (Herbicidal rate of 90% or more (almost completely withered))
CSc1ccc(-c2sc3ccc(F)cc3c2-c2c(O)c(C)nn(C)c2=O)cc1 [2-076] | 4 (Herbicidal rate of 70% or more and less than 90%)
CCCC(=O)Oc1c(C)nn(C)c(=O)c1-c1c(-c2ccc(SC)cc2)sc2ccc(F)cc12 [2-077] | 5 (Herbicidal rate of 90% or more (almost completely withered))

System: velvetleaf
Assay: Test Example 5: herbicidal effect by foliage application, plastic box (Table 20, symbol M)
Type: in vivo, velvetleaf (Abutilon theophrasti)
Settings: foliage application, 320 g/ha, evaluated three weeks after application
Method in brief: as §2

Structure (SMILES) | herbicidal effect on M: velvetleaf
C#CCOc1ccc(-c2sc3ccc(F)cc3c2-c2c(O)c(C)nn(C)c2=O)cc1 [2-053] | 5 (Herbicidal rate of 90% or more (almost completely withered))
CSc1ccc(-c2sc3ccc(F)cc3c2-c2c(O)c(C)nn(C)c2=O)cc1 [2-076] | 5 (Herbicidal rate of 90% or more (almost completely withered))
CCCC(=O)Oc1c(C)nn(C)c(=O)c1-c1c(-c2ccc(SC)cc2)sc2ccc(F)cc12 [2-077] | 5 (Herbicidal rate of 90% or more (almost completely withered))

System: lambsquarters
Assay: Test Example 5: herbicidal effect by foliage application, plastic box (Table 20, symbol O)
Type: in vivo, lambsquarters (Chenopodium album)
Settings: foliage application, 320 g/ha, evaluated three weeks after application
Method in brief: as §2

Structure (SMILES) | herbicidal effect on O: lambsquarters
C#CCOc1ccc(-c2sc3ccc(F)cc3c2-c2c(O)c(C)nn(C)c2=O)cc1 [2-053] | 5 (Herbicidal rate of 90% or more (almost completely withered))
CSc1ccc(-c2sc3ccc(F)cc3c2-c2c(O)c(C)nn(C)c2=O)cc1 [2-076] | 5 (Herbicidal rate of 90% or more (almost completely withered))
CCCC(=O)Oc1c(C)nn(C)c(=O)c1-c1c(-c2ccc(SC)cc2)sc2ccc(F)cc12 [2-077] | 5 (Herbicidal rate of 90% or more (almost completely withered))

System: blackgrass
Assay: Test Example 4: herbicidal effect by soil treatment (Table 19, symbol J)
Type: in vivo, blackgrass (Alopecurus myosuroides)
Settings: 320 g/ha
Method in brief: as §1

Structure (SMILES) | herbicidal effect rating, J: blackgrass
C#CCOc1ccc(-c2sc3ccc(F)cc3c2-c2c(O)c(C)nn(C)c2=O)cc1 [2-053] | 0 (Herbicidal rate of 5% or less (almost no effect))
CSc1ccc(-c2sc3ccc(F)cc3c2-c2c(O)c(C)nn(C)c2=O)cc1 [2-076] | 0 (Herbicidal rate of 5% or less (almost no effect))
CCCC(=O)Oc1c(C)nn(C)c(=O)c1-c1c(-c2ccc(SC)cc2)sc2ccc(F)cc12 [2-077] | 2 (Herbicidal rate of 20% or more and less than 40%)

System: wild oat
Assay: Test Example 4: herbicidal effect by soil treatment (Table 19, symbol I)
Type: in vivo, wild oat (Avena fatua)
Settings: 320 g/ha
Method in brief: as §1

Structure (SMILES) | herbicidal effect rating, I: wild oat
C#CCOc1ccc(-c2sc3ccc(F)cc3c2-c2c(O)c(C)nn(C)c2=O)cc1 [2-053] | 0 (Herbicidal rate of 5% or less (almost no effect))
CSc1ccc(-c2sc3ccc(F)cc3c2-c2c(O)c(C)nn(C)c2=O)cc1 [2-076] | 0 (Herbicidal rate of 5% or less (almost no effect))
CCCC(=O)Oc1c(C)nn(C)c(=O)c1-c1c(-c2ccc(SC)cc2)sc2ccc(F)cc12 [2-077] | 2 (Herbicidal rate of 20% or more and less than 40%)

System: Japanese bulrush
Assay: Test Example 2: herbicidal activity, application during weed generation under submerged conditions (Table 17, symbol B)
Type: in vivo, Japanese bulrush (Schoenoplectus juncoides)
Settings: AAH 320 g/ha; application during weed generation, submerged conditions
Method in brief: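 Steps: fill Wagner pots with alluvial soil; add water to give 4 cm depth; sow the species mixed; grow under glass at 25–30° C.; at 1–2 leaves apply water-diluted emulsion formulation to the water surface at a fixed herbicide amount; score after 3 weeks.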

Structure (SMILES) | herbicidal effect rating, B: Japanese bulrush
C#CCOc1ccc(-c2sc3ccc(F)cc3c2-c2c(O)c(C)nn(C)c2=O)cc1 [2-053] | 3 (Herbicidal rate of 40% or more and less than 70%)
CSc1ccc(-c2sc3ccc(F)cc3c2-c2c(O)c(C)nn(C)c2=O)cc1 [2-076] | 3 (Herbicidal rate of 40% or more and less than 70%)
CCCC(=O)Oc1c(C)nn(C)c(=O)c1-c1c(-c2ccc(SC)cc2)sc2ccc(F)cc12 [2-077] | 3 (Herbicidal rate of 40% or more and less than 70%)

System: windgrass
Assay: Test Example 5: herbicidal effect by foliage application, plastic box (Table 20, symbol L)
Type: in vivo, windgrass (Apera spica-venti)
Settings: foliage application, 320 g/ha, evaluated three weeks after application
Method in brief: as §2

Structure (SMILES) | herbicidal effect on L: windgrass
C#CCOc1ccc(-c2sc3ccc(F)cc3c2-c2c(O)c(C)nn(C)c2=O)cc1 [2-053] | 4 (Herbicidal rate of 70% or more and less than 90%)
CSc1ccc(-c2sc3ccc(F)cc3c2-c2c(O)c(C)nn(C)c2=O)cc1 [2-076] | 5 (Herbicidal rate of 90% or more (almost completely withered))
CCCC(=O)Oc1c(C)nn(C)c(=O)c1-c1c(-c2ccc(SC)cc2)sc2ccc(F)cc12 [2-077] | 5 (Herbicidal rate of 90% or more (almost completely withered))

System: green foxtail
Assay: Test Example 4: herbicidal effect by soil treatment (Table 19, symbol G)
Type: in vivo, green foxtail (Setaria viridis)
Settings: 320 g/ha
Method in brief: as §1

Structure (SMILES) | herbicidal effect rating, G: green foxtail
C#CCOc1ccc(-c2sc3ccc(F)cc3c2-c2c(O)c(C)nn(C)c2=O)cc1 [2-053] | 4 (Herbicidal rate of 70% or more and less than 90%)
CSc1ccc(-c2sc3ccc(F)cc3c2-c2c(O)c(C)nn(C)c2=O)cc1 [2-076] | 4 (Herbicidal rate of 70% or more and less than 90%)
CCCC(=O)Oc1c(C)nn(C)c(=O)c1-c1c(-c2ccc(SC)cc2)sc2ccc(F)cc12 [2-077] | 4 (Herbicidal rate of 70% or more and less than 90%)

System: chickweed
Assay: Test Example 4: herbicidal effect by soil treatment (Table 19, symbol P)
Type: in vivo, common chickweed (Stellaria media)
Settings: 320 g/ha
Method in brief: as §1

Structure (SMILES) | herbicidal effect rating, P: chickweed
C#CCOc1ccc(-c2sc3ccc(F)cc3c2-c2c(O)c(C)nn(C)c2=O)cc1 [2-053] | 1 (Herbicidal rate of 5% or more and less than 20%)
CSc1ccc(-c2sc3ccc(F)cc3c2-c2c(O)c(C)nn(C)c2=O)cc1 [2-076] | 4 (Herbicidal rate of 70% or more and less than 90%)
CCCC(=O)Oc1c(C)nn(C)c(=O)c1-c1c(-c2ccc(SC)cc2)sc2ccc(F)cc12 [2-077] | 5 (Herbicidal rate of 90% or more (almost completely withered))

System: redroot pigweed
Assay: Test Example 5: herbicidal effect by foliage application, plastic box (Table 20, symbol N)
Type: in vivo, redroot pigweed (Amaranthus retroflexus)
Settings: foliage application, 320 g/ha, evaluated three weeks after application
Method in brief: as §2

Structure (SMILES) | herbicidal effect on N: redroot pigweed
C#CCOc1ccc(-c2sc3ccc(F)cc3c2-c2c(O)c(C)nn(C)c2=O)cc1 [2-053] | 5 (Herbicidal rate of 90% or more (almost completely withered))
CSc1ccc(-c2sc3ccc(F)cc3c2-c2c(O)c(C)nn(C)c2=O)cc1 [2-076] | 5 (Herbicidal rate of 90% or more (almost completely withered))
CCCC(=O)Oc1c(C)nn(C)c(=O)c1-c1c(-c2ccc(SC)cc2)sc2ccc(F)cc12 [2-077] | 5 (Herbicidal rate of 90% or more (almost completely withered))

System: lambsquarters
Assay: Test Example 4: herbicidal effect by soil treatment (Table 19, symbol O)
Type: in vivo, lambsquarters (Chenopodium album)
Settings: 320 g/ha
Method in brief: as §1

Structure (SMILES) | herbicidal effect rating, O: lambsquarters
C#CCOc1ccc(-c2sc3ccc(F)cc3c2-c2c(O)c(C)nn(C)c2=O)cc1 [2-053] | 3 (Herbicidal rate of 40% or more and less than 70%)
CSc1ccc(-c2sc3ccc(F)cc3c2-c2c(O)c(C)nn(C)c2=O)cc1 [2-076] | 3 (Herbicidal rate of 40% or more and less than 70%)
CCCC(=O)Oc1c(C)nn(C)c(=O)c1-c1c(-c2ccc(SC)cc2)sc2ccc(F)cc12 [2-077] | 5 (Herbicidal rate of 90% or more (almost completely withered))

System: southern crabgrass
Assay: Test Example 4: herbicidal effect by soil treatment (Table 19, symbol F)
Type: in vivo, southern crabgrass (Digitaria ciliaris)
Settings: 320 g/ha
Method in brief: as §1

Structure (SMILES) | herbicidal effect rating, F: southern crabgrass
C#CCOc1ccc(-c2sc3ccc(F)cc3c2-c2c(O)c(C)nn(C)c2=O)cc1 [2-053] | 0 (Herbicidal rate of 5% or less (almost no effect))
CSc1ccc(-c2sc3ccc(F)cc3c2-c2c(O)c(C)nn(C)c2=O)cc1 [2-076] | 3 (Herbicidal rate of 40% or more and less than 70%)
CCCC(=O)Oc1c(C)nn(C)c(=O)c1-c1c(-c2ccc(SC)cc2)sc2ccc(F)cc12 [2-077] | 2 (Herbicidal rate of 20% or more and less than 40%)

System: barnyard grass
Assay: Test Example 4: herbicidal effect by soil treatment (Table 19, symbol H)
Type: in vivo, barnyard grass (Echinochloa crus-galli)
Settings: 320 g/ha
Method in brief: as §1

Structure (SMILES) | herbicidal effect rating, H: barnyard grass
C#CCOc1ccc(-c2sc3ccc(F)cc3c2-c2c(O)c(C)nn(C)c2=O)cc1 [2-053] | 2 (Herbicidal rate of 20% or more and less than 40%)
CSc1ccc(-c2sc3ccc(F)cc3c2-c2c(O)c(C)nn(C)c2=O)cc1 [2-076] | 3 (Herbicidal rate of 40% or more and less than 70%)
CCCC(=O)Oc1c(C)nn(C)c(=O)c1-c1c(-c2ccc(SC)cc2)sc2ccc(F)cc12 [2-077] | 3 (Herbicidal rate of 40% or more and less than 70%)

System: oval-leafed pondweed
Assay: Test Example 1: herbicidal activity, application before weed generation under submerged conditions (Table 16, symbol C)
Type: in vivo, oval-leafed pondweed (Monochoria vaginalis)
Settings: 320 g/ha applied herbicide
Method in brief: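 Alluvial soil was flooded to 4 cm depth, weed seeds were sown mixed and 2.5-leaf rice seedlings were transplanted. On sowing day, the compound's emulsion, diluted in water to a set dose, was applied to the water surface. Plants grew at 25–30 °C and were scored 0–5 after three weeks.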

Structure (SMILES) | Herbicidal effect on C: oval-leafed pondweed (grade 0-5)
C#CCOc1ccc(-c2sc3ccc(F)cc3c2-c2c(O)c(C)nn(C)c2=O)cc1 [2-053] | 4 (Herbicidal rate of 70% or more and less than 90%)
CSc1ccc(-c2sc3ccc(F)cc3c2-c2c(O)c(C)nn(C)c2=O)cc1 [2-076] | 0 (Herbicidal rate of 5% or less (almost no effect))
CCCC(=O)Oc1c(C)nn(C)c(=O)c1-c1c(-c2ccc(SC)cc2)sc2ccc(F)cc12 [2-077] | 5 (Herbicidal rate of 90% or more (almost completely withered))
